The test system of one test is Sprague Dawley rats. The test is described as follows: Social Recognition Task (subchronic study). Type of test: in vivo, rat. As to conditions: p.o.; for Minimum effective dose: subchronic 7 days, Sprague Dawley rats. An excerpt:
Briefly, Sprague Dawley rats were acclimatized to the CNS-Laboratory-animal holding room for at least 7 days prior to the randomization, under standard housing conditions. The animals were handled and familiarized with the injection procedures during this period. Two days before the experimentation (social interaction trial, SIT1), the rats were randomized in different treatment-groups based on their body weights namely, vehicle (Tween 80 (1%, v/v), Vitamin E TPGS (Speziol®, 10%, v/v) q.s. 100% v/v in milli-Q water; 2 ml/kg, p.o.), scopolamine (0.5 mg/kg, i.p.) and test compound (Compound 1:ranging from 0.05 to 0.50 mg/kg, p.o.).
Seven days before experiment, the vehicle or the test compound was administered to the adult rats once-daily and 1 h before the SIT1 on day-8 in respective treatment-groups. Scopolamine or vehicle was administered 20 min prior to the first social interaction (acquisition, SIT1) trial; scopolamine administration served to induced amnesia. After this treatment, the animals were subjected to the first social interaction (acquisition, SIT1) trial, which was followed by a second (retention, SIT2) trial, 30 min later.
In the case of time-delay induced amnesia paradigm, the vehicle or the test compounds (Compound 1) were administered to the adult rats once-daily for 7 days and 1 h before the SIT1 on day-8, in respective treatment-groups. After this treatment, the animals were subjected to a second (retention, SIT2) trial on day-9. The 24 h inter-trial interval served to induce spontaneous decay of memory and resultant amnesia.
Both the trials (acquisition and retention) were of 5 min duration. The social recognition task was performed in the home-cages made up of transparent polycarbonate. Juvenile rats of 3-4 weeks of age served as subjects for exploration to the adult rats. Adult rats were habituated to the home-cage (without juvenile) for 5 min just before SIT1.
Subject exploration (towards juvenile) was measured as the ‘time spent by the adult animal’ exploring the juvenile rat socially viz. sniffing, following, climbing over or going under or aggression. In order to avoid the confounding olfactory trails, the home-cage was individualized for each adult rat. During the second trial (retention trial, SIT2), adult rats were re-exposed to the same juvenile rat previously introduced earlier in the SIT1. The time of exploration in seconds was recorded for both sessions (SIT1 and SIT2).
Mean and standard error of mean (S.E.M) were determined for the exploration time of each social recognition trial (SIT1, SIT2) and recognition index across the treatment-groups. […]
The recognition index (RI) was calculated using the formula: Recognition index equals(time spent investigating juvenile rat in SIT2/time spent investigating juvenile rat in SIT1). […]

The test system of a further test is Wistar rats. The test is described as follows: Novel Object Recognition Task (subchronic study). Type of test: in vivo, rat. Particulars: p.o.; for Minimum effective dose: subchronic 7 days, Wistar rats. An excerpt: Briefly, Wistar rats were acclimatized to the CNS-Laboratory-animal holding room for at least 7 days prior to the randomization, under standard housing conditions. Animals were handled and familiarized with the injection procedures during this period. Two days before the experimentation (acquisition trial, T1), rats were randomized in different treatment-groups based on their body weights namely, vehicle (Tween 80 (1%, v/v), Vitamin E TPGS (Speziol®, 10%, v/v) q.s. 100% v/v in milli-Q water, 2 ml/kg, p.o.), scopolamine (1 mg/kg, i.p.) and test compounds (Compound 1: ranging from 0.005 to 0.05 mg/kg, p.o. and compound A:ranging from 0.05 to 0.5 mg/kg, p.o.)
Vehicle or test compounds (Compounds 1 and A) were administered in a single-dose, subchronically for 7 days, and 1 h before the acquisition trial on day-8 in respective treatment-groups. In order to induce cognitive deficits, scopolamine (1 mg/kg) was injected 25 min before the acquisition trial (T1). Acquisition (T1) and Retention (T2) trials were separated by an intertrial interval of 30 min. In the first trial (acquisition trial, T1), the rats were subjected to arena with two identical objects for a period of 5 min and exploration time towards individual object was measured. In retention trial, one of the identical object was replaced with novel object.
In the time-delay induced amnesia paradigm, vehicle or test compounds (Compounds 1 and A) were administered once-daily for 7 days, and 1 h before the acquisition trial (T1) on day-8 in the respective treatment-groups. After this, a second, retention (T2) trial, was conducted on day-9. A 24 h inter-trial interval served to induce spontaneous decay of memory and resultant amnesia in this paradigm.
In the second trial (retention trial, T2), one of the objects presented in T1 was replaced by a novel object, and the rats were left to explore in the arena for 5 min. The time spent exploring the familiar (F) and the novel object (N) was recorded separately. All the animals underwent habituation session of 10 min duration 24 h prior to acquisition trial to get them acclimatized to the test arena. Both the trials (acquisition and retention) were of 5 min duration. The NOR task was performed in the square-open-field boxes (40 cm long×40 cm wide×40 cm high) made up of non-reflective PVC sheets with black surrounding walls and light gray floor. Colored plastic and glass bottles of different size, shapes and texture, served as object of exploration.
Object exploration was measured as the ‘time spent by the animal’ directing its nose at a distance 2 cm to the object or touching and exploring it. Time spent climbing on the object was not accounted as object exploration. In order to avoid the presence of olfactory trails, the test boxes and objects were always thoroughly cleaned between trials of individual animals.
Mean and standard error of the mean (S.E.M.) was calculated for the exploration time of each identical objects in T1, novel and familiar objects in T2 and discrimination index across the treatment groups. Exploration time within groups was compared with Student's paired t-test. Discrimination index was compared between groups by One-way ANOVA with Dunnett's post hoc test in comparison to the scopolamine-treated group or vehicle-treated group as per the paradigm. Discrimination index was compared between groups by unpaired t-test in comparison to the vehicle-treated group. p<0.05 was considered as significant. All statistical comparisons were performed using GraphPad Prism version 5.00 for Windows, GraphPad Software, San Diego Calif. USA.
The discrimination index (DI) was calculated based on explorations in T2 trial, using the formula.
Discrimination Index equals (time spent investigating novel object−time spent investigating familiar object)/(time spent investigating novel object+time spent investigating familiar object). […] All the experimental recordings were carried out by manual observation of animals by trained scientists. […]

The mark [1] stands for this setting: Time-delay induced amnesia (24 h).

The values that follow come from patent US9447037B2, “4-(5-(4-chlorophenyl)-2-(2-cyclopropylacetyl)-1,4-dimethyl-1H-pyrrol-3-yl)benzenesulfonamide as alpha 7 nAChR modulator” (Lupin Limited, priority 2013, dated 2016).

With `Cc1c(-c2ccc(S(N)(=O)=O)cc2)c(C(=O)CC2CC2)n(C)c1-c1ccc(Cl)cc1` [Compound 1, 4-(5-(4-chlorophenyl)-2-(2-cyclopropylacetyl)-1,4-dimethyl-1H-pyrrol-3-yl)benzenesulfonamide], the “recognition index (RI) as compared to vehicle-treated group” value with Sprague Dawley rats (24 h time delay-induced amnesia, subchronic (7 day) 0.05 mg/Kg, FIG. 2A) is “significantly decreased”. In addition, the Minimum effective dose with Sprague Dawley rats (Scopolamine induced amnesia) amounted to 0.015 mg/kg; with Sprague Dawley rats (setting [1]), 0.05 mg/kg; with Wistar rats (Scopolamine induced amnesia) it was 0.015 mg/kg; in the test with Wistar rats (setting [1]), 0.015 mg/kg. In addition, in the test on Sprague Dawley rats (Scopolamine-induced amnesia, subchronic (7 day) 0.05 mg/Kg, FIG. 2B), the “recognition index (RI) as compared to scopolamine treated group” value is reported as “significantly decreased”. For the same compound, in the test with Wistar rats (24 h time delay-induced amnesia, subchronic (7 day) 0.05 mg/Kg, FIG. 1A), the “discrimination index as compared to vehicle-treated group” value is recorded as “significantly increased”. Further, the “discrimination index as compared to scopolamine treated group” value in the test on Wistar rats (Scopolamine-induced amnesia, subchronic (7 day) 0.05 mg/Kg, FIG. 1B) is listed as “significantly increased”.
For `CCC(=O)c1c(-c2ccc(S(N)(=O)=O)cc2)c(C)c(-c2ccc(Cl)cc2)n1C` [Compound A, 4-(5-(4-chlorophenyl)-1,4-dimethyl-2-propionyl-1H-pyrrol-3-yl)benzenesulfonamide, reference compound], the Minimum effective dose is above 0.5 mg/kg in the test with Wistar rats (Scopolamine induced amnesia) and 0.15 mg/kg with Wistar rats (setting [1]).
